This note sets out measurements from patent US10196391B2 (Hoffmann-La Roche Inc., priority 2014, dated 2019).

SMILES strings stand for the structures.

The experiment deals with HBsAg. Briefly: HBsAg assay (CLIA) in HepG2.2.15 cells. The format is cell-based, HBV. The settings on record: Hepatitis B virus, HepG2.2.15, read-out: IC50 (HBsAg assay). As for the experimental part:
HepG2.2.15 cells (Acs et al. Proc Natl Acad Sci USA, 84, (1987), 4641-4), a constitutively HBV-expressing cell line were cultured in DMEM+Glutamax-I medium (Invitrogen, Carlsbad, Calif., USA), supplemented with 10% fetal bovine serum (Invitrogen) and G418 (Invitrogen) at a final concentration of 200 mg/L and maintained in 5% CO2 at 37° C.
HepG2.2.15 cells were seeded in duplicate into white, 96-well plates at 1.5×10^4 cells/well. The cells were treated with a three-fold serial dilution series of the compounds in DMSO. The final DMSO concentration in all wells was 1% and DMSO was used as no drug control.
The HBsAg chemiluminescence immunoassay (CLIA) kit (Autobio Diagnostics Co., Zhengzhou, China, Catalog number: CL0310-2) was used to measure the levels of secreted HBV antigens semi-quantitatively. For the detection 50 μL/well culture supernatant was used and HBsAg was quantified using HBsAg chemiluminescence immunoassay (CLIA) kit (Autobio Diagnostics Co., Zhengzhou, China, Catalog number: CL0310-2), 50 μL of the supernatant was transferred to the CLIA assay plate and 50 μL of enzyme conjugate reagent was added into each well. The plates were sealed and gently agitated for 1 hour at room temperature. The supernatant-enzyme-mixture was discarded and wells were washed 6 times with 300 μL of PBS. The residual liquid was removed by plating the CLIA plate […] on absorbent tissue paper. 25 μL of substrates A and B were added to each well. Luminance was measured using a luminometer (Mithras LB 940 Multimode Microplate Reader) after 10 minutes incubation. Dose-response curves were generated and the IC50 value was extrapolated by using the E-WorkBook Suite (ID Business Solutions Ltd., Guildford, UK). The IC50 was defined as the compound concentration (or conditioned media log dilution) at which HBsAg secretion was reduced by 50% compared to the no drug control.
The compounds according to formula I were tested for their capacity to inhibit HBsAg as described herein.
Turning to `CS(=O)(=O)c1ccc(N2CCc3nc(-c4ccc(F)cn4)ncc3C2)cc1` [Example 2, 2-(5-fluoro-2-pyridyl)-6-(4-methylsulfonylphenyl)-7,8-dihydro-5H-pyrido[4,3-d]pyrimidine], the concentration for half-maximal inhibition (IC50) worked out at 10200 nM.

Regarding `COC(=O)c1ccc(N2CCc3nc(-c4ccccn4)ncc3C2)cc1F` [Example 15, methyl 2-fluoro-4-[2-(2-pyridyl)-7,8-dihydro-5H-pyrido[4,3-d]pyrimidin-6-yl]benzoate], the IC50 was determined as 9230 nM.

For `COc1cc(N2CCc3nc(-c4ccccn4)ncc3C2)ccc1F` [Example 90, 6-(4-fluoro-3-methoxy-phenyl)-2-(2-pyridyl)-7,8-dihydro-5H-pyrido[4,3-d]pyrimidine], the IC50 was determined as 933 nM.

`Cc1cc(F)cc(N2CCc3nc(-c4ccccn4)ncc3C2)c1` [Example 40, 6-(3-fluoro-5-methyl-phenyl)-2-(2-pyridyl)-7,8-dihydro-5H-pyrido[4,3-d]pyrimidine]: the half-inhibitory concentration (IC50) was 669 nM.

As to `COc1ccc(N2CCc3nc(-c4ccccn4)ncc3C2)c(F)c1F` [Example 61, 6-(2,3-difluoro-4-methoxy-phenyl)-2-(2-pyridyl)-7,8-dihydro-5H-pyrido[4,3-d]pyrimidine], the IC50 came to 3030 nM.

As for `OCCOc1cc(N2CCc3nc(-c4ccccn4)ncc3C2)cc(F)c1F` [Example 94, 2-[2,3-difluoro-5-[2-(2-pyridyl)-7,8-dihydro-5H-pyrido[4,3-d]pyrimidin-6-yl]phenoxy]ethanol], the 50% inhibitory concentration (IC50) amounted to 660 nM.

As for `CNS(=O)(=O)c1ccc(N2CCc3nc(-c4ccccn4)ncc3C2)cc1` [Example 8, N-methyl-4-[2-(2-pyridyl)-7,8-dihydro-5H-pyrido[4,3-d]pyrimidin-6-yl]benzenesulfonamide], the IC50 came out at 4180 nM.

`OCCCOc1cc(N2CCc3nc(-c4ccccn4)ncc3C2)cc(F)c1F` [Example 93, 3-[2,3-difluoro-5-[2-(2-pyridyl)-7,8-dihydro-5H-pyrido[4,3-d]pyrimidin-6-yl]phenoxy]propan-1-ol]: the IC50 was determined as 314 nM.

`COc1cc(F)c(F)cc1N1CCc2nc(-c3ccccn3)ncc2C1` [Example 27, 6-(4,5-difluoro-2-methoxy-phenyl)-2-(2-pyridyl)-7,8-dihydro-5H-pyrido[4,3-d]pyrimidine]: the IC50 worked out at 3160 nM.

With `CS(=O)(=O)c1cccc(N2CCc3nc(-c4ccccn4)ncc3C2)c1` [Example 11, 6-(3-methylsulfonylphenyl)-2-(2-pyridyl)-7,8-dihydro-5H-pyrido[4,3-d]pyrimidine], the IC50 amounted to 17400 nM.

In the case of `COc1cc(N2CCc3nc(-c4ncccn4)ncc3C2)cc(F)n1` [Example 112, 6-(2-fluoro-6-methoxy-4-pyridyl)-2-pyrimidin-2-yl-7,8-dihydro-5H-pyrido[4,3-d]pyrimidine], the half-maximal inhibitory concentration (IC50) was 553 nM.

Turning to `COc1ccc2ccc(N3CCc4nc(-c5ncccn5)ncc4C3)cc2n1` [Example 75, 6-(2-methoxy-7-quinolyl)-2-pyrimidin-2-yl-7,8-dihydro-5H-pyrido[4,3-d]pyrimidine], the concentration for half-maximal inhibition (IC50) is 2020 nM.

Take `CCCc1nc(-c2ccccn2)nc2c1CN(c1ccc(S(C)(=O)=O)cc1)CC2` [Example 85]: the half-inhibitory concentration (IC50) worked out at 8290 nM.

On to `Fc1ccc(N2CCc3nc(-c4ccccn4)ncc3C2)c(OCc2ccccc2)c1` [Example 38, 6-(2-benzyloxy-4-fluoro-phenyl)-2-(2-pyridyl)-7,8-dihydro-5H-pyrido[4,3-d]pyrimidine], for which the IC50 was found to be 17700 nM.

In the case of `COc1cc(N2CCc3nc(-c4cnccn4)ncc3C2)cc(F)c1F` [Example 28, 6-(3,4-difluoro-5-methoxy-phenyl)-2-pyrazin-2-yl-7,8-dihydro-5H-pyrido[4,3-d]pyrimidine], the IC50 came to 455 nM.

Consider `Fc1cc(N2CCc3nc(-c4ccccn4)ncc3C2)ccc1Br` [Example 52, 6-(4-bromo-3-fluoro-phenyl)-2-(2-pyridyl)-7,8-dihydro-5H-pyrido[4,3-d]pyrimidine], for which the concentration for half-maximal inhibition (IC50) is 1970 nM.

Turning to `CCOc1cc(N2CCc3nc(-c4ccccn4)ncc3C2)ccc1C(=O)O` [Example 66, 2-ethoxy-4-[2-(2-pyridyl)-7,8-dihydro-5H-pyrido[4,3-d]pyrimidin-6-yl]benzoic acid], the IC50 is 13200 nM.

`CCCOc1ccc(N2CCc3nc(-c4ccccn4)ncc3C2)cc1F` [Example 55, 6-(3-fluoro-4-propoxy-phenyl)-2-(2-pyridyl)-7,8-dihydro-5H-pyrido[4,3-d]pyrimidine]: the IC50 was found to be 1180 nM.

Take `Clc1ccc(N2CCc3nc(-c4ccccn4)ncc3C2)nc1` [Example 36, 6-(5-chloro-2-pyridyl)-2-(2-pyridyl)-7,8-dihydro-5H-pyrido[4,3-d]pyrimidine]: the IC50 came to 1540 nM.

As to `CCOC(=O)c1ccc(N2CCc3nc(-c4ccccn4)ncc3C2)cc1` [Example 31, ethyl 4-[2-(2-pyridyl)-7,8-dihydro-5H-pyrido[4,3-d]pyrimidin-6-yl]benzoate], the half-maximal inhibitory concentration (IC50) worked out at 16900 nM.

In the case of `Fc1cc(C2CC2)cc(N2CCc3nc(-c4ncccn4)ncc3C2)c1` [Example 42, 6-(3-cyclopropyl-5-fluoro-phenyl)-2-pyrimidin-2-yl-7,8-dihydro-5H-pyrido[4,3-d]pyrimidine], the IC50 turned out to be 566 nM.

For the molecule `CS(=O)(=O)c1ccc(N2CCc3nc(-c4ccccn4)ccc3C2)cc1` [Example 89, 6-(4-methylsulfonylphenyl)-2-(2-pyridyl)-7,8-dihydro-5H-1,6-naphthyridine], the IC50 was determined as 6720 nM.

As for `COc1cc(N2CCc3nc(-c4ccccn4)ncc3C2)ncc1F` [Example 71, 6-(5-fluoro-4-methoxy-2-pyridyl)-2-(2-pyridyl)-7,8-dihydro-5H-pyrido[4,3-d]pyrimidine], the half-maximal inhibitory concentration (IC50) stood at 330 nM.

`COc1ccc(-c2ncc3c(n2)CCN(c2ccc(S(C)(=O)=O)cc2)C3)nc1` [Example 5, 2-(5-methoxy-2-pyridyl)-6-(4-methylsulfonylphenyl)-7,8-dihydro-5H-pyrido[4,3-d]pyrimidine]: the IC50 is 42100 nM.

With `COc1cc(Cl)cc(N2CCc3nc(-c4ncccn4)ncc3C2)n1` [Example 115, 6-(4-chloro-6-methoxy-2-pyridyl)-2-pyrimidin-2-yl-7,8-dihydro-5H-pyrido[4,3-d]pyrimidine], the concentration for half-maximal inhibition (IC50) was determined as 352 nM.

Take `c1ccc(COc2ccc(N3CCc4nc(-c5ccccn5)ncc4C3)cc2)cc1` [Example 46, 6-(4-benzyloxyphenyl)-2-(2-pyridyl)-7,8-dihydro-5H-pyrido[4,3-d]pyrimidine]: the concentration for half-maximal inhibition (IC50) worked out at 8790 nM.

On to `c1cnc(-c2ncc3c(n2)CCN(c2nccs2)C3)nc1` [Example 119, 2-(2-pyrimidin-2-yl-7,8-dihydro-5H-pyrido[4,3-d]pyrimidin-6-yl)thiazole], for which the IC50 was found to be 6080 nM.

`COCCOc1cc(N2CCc3nc(-c4ccccn4)ncc3C2)ccc1OC` [Example 58, 6-[4-methoxy-3-(2-methoxyethoxy)phenyl]-2-(2-pyridyl)-7,8-dihydro-5H-pyrido[4,3-d]pyrimidine]: the IC50 came to 20200 nM.

`COCCOc1ccc(N2CCc3nc(-c4ccccn4)ncc3C2)cc1OC` [Example 57, 6-[3-methoxy-4-(2-methoxyethoxy)phenyl]-2-(2-pyridyl)-7,8-dihydro-5H-pyrido[4,3-d]pyrimidine]: the IC50 worked out at 2170 nM.

Take `Fc1cc(N2CCc3nc(-c4ccccn4)ncc3C2)cc(OCc2ccccc2)c1F` [Example 20, 6-(3-benzyloxy-4,5-difluoro-phenyl)-2-(2-pyridyl)-7,8-dihydro-5H-pyrido[4,3-d]pyrimidine]: the IC50 was found to be 2840 nM.

Turning to `COc1cc(N2CCc3nc(-c4ncccn4)ncc3C2)cc(F)c1Cl` [Example 78, 6-(4-chloro-3-fluoro-5-methoxy-phenyl)-2-pyrimidin-2-yl-7,8-dihydro-5H-pyrido[4,3-d]pyrimidine], the IC50 stood at 19000 nM.

Consider `COCCCNC(=O)c1cc(F)cc(N2CCc3nc(-c4ncccn4)ncc3C2)c1` [Example 106, 3-fluoro-N-(3-methoxypropyl)-5-(2-pyrimidin-2-yl-7,8-dihydro-5H-pyrido[4,3-d]pyrimidin-6-yl)benzamide], for which the IC50 worked out at 1340 nM.

Turning to `CC1CN(c2ccc([N+](=O)[O-])cc2)Cc2cnc(-c3ccccn3)nc21` (stereo not drawn) [Example 48, 8-methyl-6-(4-nitrophenyl)-2-(2-pyridyl)-7,8-dihydro-5H-pyrido[4,3-d]pyrimidine], the half-inhibitory concentration (IC50) stood at 1380 nM.

Regarding `FC(F)Oc1cccc(N2CCc3nc(-c4ncccn4)ncc3C2)c1` [Example 63, 6-[3-(difluoromethoxy)phenyl]-2-pyrimidin-2-yl-7,8-dihydro-5H-pyrido[4,3-d]pyrimidine], the concentration for half-maximal inhibition (IC50) stood at 1940 nM.

Turning to `C/C=C/c1nc(-c2ccccn2)nc2c1CN(c1ccc(S(C)(=O)=O)cc1)CC2` [Example 84], the IC50 came to 8560 nM.

With `CCc1nc(-c2ccccn2)nc2c1CN(c1ccc(S(C)(=O)=O)cc1)CC2` [Example 86], the IC50 was determined as 22100 nM.
